Experimental data from patent US20260151403A1, “NEK7 DEGRADERS AND METHODS OF USE THEREOF” (Captor Therapeutics S.A., priority 2022, published 2026).
Structures can show the parent of a compound that is named as a salt.

Key:
[1] = biological target: T1, [NEK7]-[compound of formula (I)]-[CRBN/DDB1] complex (Homo sapiens, UniProt Q8TDX7+Q96SW2); assay: AlphaLISA dose response ternary complex formation assay; format: binding; settings: 1 μM compound; normalized to maximum signal of Compound 2 (positive control) and DMSO background; read-out: Normalized AlphaLISA ternary complex average signal at 1 μM molecule
Summary of the method: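 Biotinylated NEK7 (200 nM) on streptavidin donor beads and 6×His-CRBN/Strep-DDB1 (200 nM) on anti-His acceptor beads, each at 40 μg/ml and preincubated 30 min, then mixed and added to compound in HBS pH 7.4, 0.1% Tween-20, 1 mM DTT, 2% DMSO. After 30 min at 25 °C, AlphaLISA signal was read (ex 680/em 615 nm) and normalised to DMSO background and maximal Compound 2 signal.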

[2] = biological target: T1, [NEK7]-[compound of formula (I)]-[CRBN/DDB1] complex; assay: HTRF ternary complex assay; format: binding; settings: dose-response, 180 min at 25° C.; read-out: HTRF ternary complex Average pEC50 by molecule (converted)
Summary of the method: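 Mix of 24 nM NEK7, 52.8 nM 6×His-CRBN/Strep-DDB1, 3 nM streptavidin-Eu cryptate and 6.67 nM anti-6×His-d2 in PPI Europium detection buffer with 1 mM DTT, dose-response compound, 0.5% DMSO, 180 min at 25° C. TR-FRET (665/620) read, normalized to DMSO background, Hill-slope fit gave EC50/pEC50.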

NEK7-HiBiT protein = NEK7-HiBiT protein (Homo sapiens, UniProt Q8TDX7); assay: NEK7-HiBiT degradation assay (Nano-Glo HiBiT Lytic Assay) in HEK293 NEK7-HiBiT cells; format: cell-based; settings: 24 h, conc. 0.1, 1 and 10 μM tested, concentration of the table values not stated, mean of 3 technical replicates
Summary of the method: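 HEK293 cells with CRISPR knock-in N-terminal HiBiT-tagged NEK7 exposed to compound for 24 h at 37 °C, 5% CO2. Residual NEK7-HiBiT was read as Nano-Glo HiBiT lytic luminescence and expressed as % of DMSO control across triplicates; compounds run at 0.1, 1 and 10 μM.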

T1 sequence (Q8TDX7 whole entry): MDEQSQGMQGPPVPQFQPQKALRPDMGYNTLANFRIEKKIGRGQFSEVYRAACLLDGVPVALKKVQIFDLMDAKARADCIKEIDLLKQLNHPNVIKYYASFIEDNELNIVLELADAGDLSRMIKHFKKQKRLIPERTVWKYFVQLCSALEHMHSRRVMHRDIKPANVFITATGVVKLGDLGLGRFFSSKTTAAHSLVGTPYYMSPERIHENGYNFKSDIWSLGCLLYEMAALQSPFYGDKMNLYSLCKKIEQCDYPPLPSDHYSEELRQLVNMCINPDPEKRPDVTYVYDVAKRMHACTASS
T1 sequence (Q96SW2 whole entry): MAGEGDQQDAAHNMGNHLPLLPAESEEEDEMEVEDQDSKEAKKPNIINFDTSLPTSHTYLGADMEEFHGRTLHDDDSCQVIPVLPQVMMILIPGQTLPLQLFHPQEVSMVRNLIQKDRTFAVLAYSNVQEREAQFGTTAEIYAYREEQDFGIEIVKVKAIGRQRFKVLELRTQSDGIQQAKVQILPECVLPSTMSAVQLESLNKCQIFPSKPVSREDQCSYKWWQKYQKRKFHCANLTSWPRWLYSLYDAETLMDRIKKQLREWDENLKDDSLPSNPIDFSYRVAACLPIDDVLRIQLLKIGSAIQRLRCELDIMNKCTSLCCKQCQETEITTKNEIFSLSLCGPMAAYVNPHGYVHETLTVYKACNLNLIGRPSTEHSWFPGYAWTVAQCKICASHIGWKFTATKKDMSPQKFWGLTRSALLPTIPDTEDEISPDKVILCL
T1 sequence (Q16531 whole entry partner): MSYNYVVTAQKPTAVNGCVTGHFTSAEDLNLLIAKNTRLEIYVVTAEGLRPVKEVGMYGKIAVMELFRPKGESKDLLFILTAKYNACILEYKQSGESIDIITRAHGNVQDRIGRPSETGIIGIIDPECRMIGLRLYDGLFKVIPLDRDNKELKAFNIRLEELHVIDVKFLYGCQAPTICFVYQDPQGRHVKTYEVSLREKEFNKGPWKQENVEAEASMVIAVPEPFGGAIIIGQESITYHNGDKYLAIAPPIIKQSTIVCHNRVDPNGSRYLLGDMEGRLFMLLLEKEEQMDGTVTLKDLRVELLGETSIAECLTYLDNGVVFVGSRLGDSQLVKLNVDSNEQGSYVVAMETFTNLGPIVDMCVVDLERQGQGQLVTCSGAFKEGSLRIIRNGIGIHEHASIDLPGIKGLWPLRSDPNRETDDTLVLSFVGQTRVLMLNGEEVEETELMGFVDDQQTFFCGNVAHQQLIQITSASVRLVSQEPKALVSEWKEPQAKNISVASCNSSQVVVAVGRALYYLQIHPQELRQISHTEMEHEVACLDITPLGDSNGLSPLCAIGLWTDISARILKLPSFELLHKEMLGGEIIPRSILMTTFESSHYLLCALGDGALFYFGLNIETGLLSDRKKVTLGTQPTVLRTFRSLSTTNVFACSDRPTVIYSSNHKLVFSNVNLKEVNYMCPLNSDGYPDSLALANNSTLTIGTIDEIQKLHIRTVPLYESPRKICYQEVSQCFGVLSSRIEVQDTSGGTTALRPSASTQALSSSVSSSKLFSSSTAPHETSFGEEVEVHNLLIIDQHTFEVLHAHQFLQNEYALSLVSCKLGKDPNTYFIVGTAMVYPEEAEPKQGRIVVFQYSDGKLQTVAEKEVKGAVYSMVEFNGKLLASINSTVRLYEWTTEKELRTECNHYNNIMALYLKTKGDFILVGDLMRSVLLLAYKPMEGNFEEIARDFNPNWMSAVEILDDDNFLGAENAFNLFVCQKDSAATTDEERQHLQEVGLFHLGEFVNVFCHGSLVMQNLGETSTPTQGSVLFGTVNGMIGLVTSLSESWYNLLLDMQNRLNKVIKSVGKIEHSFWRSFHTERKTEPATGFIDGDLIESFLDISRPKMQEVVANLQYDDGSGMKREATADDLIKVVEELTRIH
NEK7-HiBiT protein, sequence (Q8TDX7 whole entry): as the sequence (Q8TDX7 whole entry) above
NEK7-HiBiT protein, sequence (Q96SW2 whole entry, further chain): as the sequence (Q96SW2 whole entry) above
NEK7-HiBiT protein, sequence (Q16531 whole entry partner): as the sequence (Q16531 whole entry partner) above

| SMILES | activation at 1 µM [1] | EC50 [2] | Levels of NEK7-HiBiT Protein (as a % of DMSO control) (NEK7-HiBiT protein) |
| --- | --- | --- | --- |
| O=C1CCC(N2Cc3cc(N4CCCCN4)ccc3C2=O)C(=O)N1 (stereo not drawn) [Compound 58, 3-(1-oxo-5-(tetrahydropyridazin-1 (2H)-yl)isoindolin-2-yl)piperidine-2,6-dione] | 20 to 80% | 0.1 to 0.316 µM | C (Levels of NEK7-HiBiT Protein > 50% and <75%) |
| O=C1CCC(N2C(=O)c3cccc4c(C5CCCCN5)ccc2c34)C(=O)N1 (stereo not drawn) [Compound 59, 3-(2-oxo-6-(piperidin-2-yl)benzo[cd]indol-1 (2H)-yl)piperidine-2,6-dione] | < 10% | > 3.16 µM | D (Levels of NEK7-HiBiT Protein ≥ 75%) |
| O=C1CCC(N2Cc3cc(C4CCCC(C(F)(F)F)N4)ccc3C2=O)C(=O)N1 (stereo not drawn) [Compound 60, 3-(1-oxo-5-(6-(trifluoromethyl)piperidin-2-yl)isoindolin-2-yl)piperidine-2,6-dione] | < 10% | 0.316 to 1 µM | C (Levels of NEK7-HiBiT Protein > 50% and <75%) |
| O=C1CCC(N2Cc3cc(C4COCCN4)ccc3C2=O)C(=O)N1 (stereo not drawn) [Compound 61, 3-(5-(morpholin-3-yl)-1-oxoisoindolin-2-yl)piperidine-2,6-dione] | 10 to 20% | 0.1 to 0.316 µM | C (Levels of NEK7-HiBiT Protein > 50% and <75%) |
| O=C1CCCC(N2Cc3cc(C4CCCCN4)ccc3C2=O)C(=O)N1 (stereo not drawn) [Compound 65, 3-(1-oxo-5-(piperidin-2-yl)isoindolin-2-yl)azepane-2,7-dione] | < 10% | > 3.16 µM | C (Levels of NEK7-HiBiT Protein > 50% and <75%) |
| O=C1CCC(N2Cc3c(csc3C3CCCCO3)C2=O)C(=O)N1 (stereo not drawn) [Compound 71, 3-(4-oxo-1-(tetrahydro-2H-pyran-2-yl)-4H-thieno[3,4-c]pyrrol-5 (6H)-yl)piperidine-2,6-dione] | < 10% | > 3.16 µM | D (Levels of NEK7-HiBiT Protein ≥ 75%) |
| O=C1CCC(N2Cc3cc(C4CCCCO4)sc3C2=O)C(=O)N1 (stereo not drawn) [Compound 73, 3-(6-oxo-2-(tetrahydro-2H-pyran-2-yl)-4,6-dihydro-5H-thieno[2,3-c]pyrrol-5-yl)piperidine-2,6-dione] | < 10% | > 3.16 µM | D (Levels of NEK7-HiBiT Protein ≥ 75%) |

Continued, in another order:

| activation at 1 µM [1] | EC50 [2] | SMILES | Levels of NEK7-HiBiT Protein (as a % of DMSO control) (NEK7-HiBiT protein) |
| --- | --- | --- | --- |
| 20 to 80% | 0.1 to 0.316 µM | O=C1CCC(N2Cc3cc(C4CSCCN4)ccc3C2=O)C(=O)N1 (stereo not drawn) [Compound 57, 3-(1-oxo-5-(thiomorpholin-3-yl)isoindolin-2-yl)piperidine-2,6-dione] | C (Levels of NEK7-HiBiT Protein > 50% and <75%) |
| 20 to 80% | 0.316 to 1 µM | O=C1CCC(N2Cc3cc(C4CCCCCN4)ccc3C2=O)C(=O)N1 (stereo not drawn) [Compound 62, 3-(5-(azepan-2-yl)-1-oxoisoindolin-2-yl)piperidine-2,6-dione] | B (Levels of NEK7-HiBiT Protein > 25% and ≤50%) |
| 10 to 20% | 0.1 to 0.316 µM | O=C1CCC(N2C(=O)c3ccc(C4CCCCN4)c4cccc2c34)C(=O)N1 (stereo not drawn) [Compound 66, 3-(2-oxo-5-(piperidin-2-yl)benzo[cd]indol-1 (2H)-yl)piperidine-2,6-dione trifluoroacetate] | B (Levels of NEK7-HiBiT Protein > 25% and ≤50%) |
| 10 to 20% | > 3.16 µM | CN1CCNC(c2ccc3c(c2)CN(C2CCC(=O)NC2=O)C3=O)C1 (stereo not drawn) [Compound 67, 3-(5-(4-methylpiperazin-2-yl)-1-oxoisoindolin-2-yl)piperidine-2,6-dione] | B (Levels of NEK7-HiBiT Protein > 25% and ≤50%) |
| 10 to 20% | 0.316 to 1 µM | O=C1CCC(N2Cc3cc(C4COCCO4)ccc3C2=O)C(=O)N1 (stereo not drawn) [Compound 68, 3-(5-(1,4-dioxan-2-yl)-1-oxoisoindolin-2-yl)piperidine-2,6-dione] | D (Levels of NEK7-HiBiT Protein ≥ 75%) |
| < 10% | > 3.16 µM | O=C1CCC(N2Cc3cc(C4CCCCN4)sc3C2=O)C(=O)N1 (stereo not drawn) [Compound 72, 3-(6-oxo-2-(piperidin-2-yl)-4,6-dihydro-5H-thieno[2,3-c]pyrrol-5-yl)piperidine-2,6-dione] | C (Levels of NEK7-HiBiT Protein > 50% and <75%) |
